Patent US20250170100A1, “MONOACYLGLYCEROL LIPASE INHIBITORS AND USE THEREOF FOR THE TREATMENT OF ANXIETY AND RELATED CONDITIONS” (Psy Therapeutics, Inc., priority 2021, published 2025)

Target: T1, human MAGL (Homo sapiens (Human), UniProt Q99685)
Test: MAGL inhibition potency assay with 4NPA substrate (methods of Table C)
Format: biochemical
Details: Method 1: Reaction Biology MAGL enzyme, 6 nM; read-out: MAGL Potency (Detection Method)
Text: Cayman's Monoacylglycerol Lipase Inhibitor Screening Assay provides a method for screening human MAGL inhibitors. MAGL hydrolyzes 4-nitrophenylacetate resulting in a yellow product, 4-nitrophenol, with an absorbance of 405-412 nm. The monoacylglycerol lipase inhibitor screening assay kit from Cayman Chemical was used to measure the MAGL potency for the compounds in Table 3 and Table 4. Cayman's Monoacylglycerol Lipase Inhibitor Screening Assay provides a method for screening human MAGL inhibitors. MAGL hydrolyzes 4-nitrophenylacetate resulting in a yellow product, 4-nitrophenol, with an absorbance of 405-412 nm. MAGL Inhibition was measured by the following assay. Monoacylglycerol Lipase (MAGL) inhibition was measured using recombinant MAGL enzyme (aa 2-303 RBC, internal preparation) and the substrate 4-Nitrophenyl acetate (4NPA) (Sigma-Aldrich, N8130). Hydrolysis of the substrate in the presence of the enzyme was measured by absorbance at 405 nm. 10 μL of assay buffer (10 mM Tris pH 7.5, 1 mM EDTA, 0.9% DMSO) was added to a black 384-well non-binding plate with clear bottom (Greiner, 781906) for each reaction. […] DMSO control wells were included for reference. A 10.8 nM (1.8×) MAGL mix in assay buffer was prepared, with […] added to each reaction well, for a final assay concentration of 6 nM. No enzyme wells received 25 μL of buffer. Plate was incubated at room temperature for 30 minutes. 35 mM solution of 4NPA in methanol was prepared daily. A 4.5×4NPA substrate solution was prepared in assay buffer and 10 μL was added to each reaction well, for a final assay concentration of 0.25 mM. Plate was spun for 1 minute at 1000 rpm before measuring absorbance using a CLARIOstar plate reader (BMG Labtech). A kinetic reading at 405 nm was done every minute for 30 minutes. Data was analyzed using the linear slope of the reaction progress curve and the average of the no-enzyme wells (background) was subtracted from the data. The background-subtracted slope data was converted to % activity using the average of wells with enzyme and DMSO vehicle. IC50s were calculated using GraphPad software (Sigmoidal dose response, variable slope equation). […] Table 5 provides potency measurements of MAGL inhibition measured using the Potency Assay of Example 18 above, with the following modifications described in Table C. [table]
Target sequence in this assay (Q99685 2-303): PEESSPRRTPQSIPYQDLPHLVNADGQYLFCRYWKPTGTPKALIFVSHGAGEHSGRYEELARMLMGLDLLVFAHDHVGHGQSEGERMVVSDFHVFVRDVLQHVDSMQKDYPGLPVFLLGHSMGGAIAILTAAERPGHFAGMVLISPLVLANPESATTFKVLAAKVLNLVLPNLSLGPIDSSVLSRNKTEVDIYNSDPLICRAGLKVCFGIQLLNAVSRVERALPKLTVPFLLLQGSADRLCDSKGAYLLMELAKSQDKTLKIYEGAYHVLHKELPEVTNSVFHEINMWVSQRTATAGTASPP

IC50	Structure (SMILES)
< 0.05 µM	Cc1cc(C2CC3(C2)CN(C(=O)c2cc(O)c(F)cc2F)C3)n(-c2ccccc2C)n1 [Compound 126, (2,4-difluoro-5-hydroxyphenyl) (6-(3-methyl-1-(o-tolyl)-1H-pyrazol-5-yl)-2-azaspiro[3.3]heptan-2-yl) methanone]
< 0.05 µM	Cc1cc(C2CC3(C2)CN(C(=O)c2cc(O)ccc2C#N)C3)n(-c2ccccc2C)n1 [Compound 128, 4-hydroxy-2-({6-[3-methyl-1-(o-tolyl)-5-pyrazolyl]-2-aza-2-spiro[3.3]heptyl}carbonyl)benzonitrile]

Same assay, conditions: Method 6: Reaction Biology MAGL enzyme, 6 nM; read-out: Potency (MAGL inhibition)

IC50	Structure (SMILES)
> 10 µM	Cc1cnn(C2CC3(C2)CN(C(=O)c2cc(O)ccc2F)C3)c1-c1ccccc1Cl [Compound 404]
> 10 µM	Cc1ccccc1-c1c(C)cnn1C1CC2(C1)CN(C(=O)c1cc(O)ccc1F)C2 [Compound 405]
> 10 µM	Cc1cc(-c2ccccc2C)n(C2CC3(C2)CN(C(=O)c2cc(O)ccc2F)C3)n1 [Compound 406]
> 10 µM	Cc1cn(C2CC3(C2)CN(C(=O)c2cc(O)ccc2F)C3)nc1-c1ccccc1Cl [Compound 416]
> 10 µM	O=C(c1ccc(F)cc1OC1CC1)N1CC2(CC(n3nc(C(F)(F)F)cc3-c3ccccc3C(F)(F)F)C2)C1 [Compound 424, (2-cyclopropoxy-4-fluorophenyl) (6-(3-(trifluoromethyl)-5-(2-(trifluoromethyl)phenyl)-1H-pyrazol-1-yl)-2-azaspiro[3.3]heptan-2-yl) methanone]
> 10 µM	Cc1ccccc1-c1ccn(C2CC3(C2)CN(C(=O)c2cc(O)ccc2F)C3)n1 [Compound 441]
> 10 µM	Cc1ccccc1-c1cc(C)n(C2CC3(C2)CN(C(=O)c2cc(O)ccc2F)C3)n1 [Compound 442]
> 10 µM	O=C(c1cc(O)ccc1F)N1CC2(CC(n3cc(C4CC4)c(-c4ccccc4Cl)n3)C2)C1 [Compound 445]

Same assay, conditions: Method 14: Reaction Biology MAGL enzyme, 6 nM; read-out: MAGL Potency (Detection Method)

IC50	Structure (SMILES)
< 0.05 µM	Cc1cc(C2CC3(C2)CN(C(=O)c2cc(O)ccc2F)C3)n(-c2cc(F)ccc2C)n1 [Compound 365, (2-fluoro-5-hydroxyphenyl) {6-[1-(5-fluoro-2-tolyl)-3-methyl-5-pyrazolyl]-2-aza-2-spiro[3.3]heptyl}methanone]
< 0.05 µM	Cc1cc(C2CC3(C2)CN(C(=O)c2cc(O)ccc2F)C3)n(-c2ccccc2C(F)(F)F)n1 [Compound 366, (2-fluoro-5-hydroxyphenyl) (6-{3-methyl-1-[o-(trifluoromethyl)phenyl]-5-pyrazolyl}-2-aza-2-spiro[3.3]heptyl) methanone]
0.05 to 0.15 µM	Cc1ccccc1-n1nccc1C1CC2(C1)CN(C(=O)c1cc(O)ccc1F)C2 [Compound 367, (2-fluoro-5-hydroxyphenyl) (6-(1-(o-tolyl)-1H-pyrazol-5-yl)-2-azaspiro [3.3]heptan-2-yl) methanone]

Same assay, conditions: Method 14: Reaction Biology MAGL enzyme, 6 nM; read-out: Potency (MAGL inhibition)

IC50	Structure (SMILES)
> 10 µM	Cc1cc(C2CC3(C2)CN(C(=O)c2cc4c(cc2F)CCO4)C3)n(-c2ccccc2C)n1 [Compound 368]
> 10 µM	O=C(c1cc(O)ccc1F)N1CC2(CC(C(=O)N3CCOCC3)C2)C1 [Compound 384]
> 10 µM	O=C(c1cc(O)ccc1F)N1CC2(CC(C(=O)N3CCCC3)C2)C1 [Compound 388]
> 10 µM	O=C(c1cc(O)ccc1F)N1CC2(CC(C(=O)N3CCC4(COC4)C3)C2)C1 [Compound 391]
> 10 µM	O=C(NCC1COC1)C1CC2(C1)CN(C(=O)c1cc(O)ccc1F)C2 [Compound 395]
> 10 µM	O=C(c1cc(O)ccc1F)N1CC2(CC(C(=O)N3CCC4(CCCO4)C3)C2)C1 (centres unmarked) [Compound 400]
> 10 µM	Cc1cc(C2CC3(C2)CN(C(=O)c2ccc4c(c2)OCC4)C3)n(-c2ccccc2C)n1 [Compound 402]
> 10 µM	Cc1cc(C2CC3(C2)CN(C(=O)c2cccc4c2CCO4)C3)n(-c2ccccc2C)n1 [Compound 403]

Same assay, conditions: read-out: Potency (MAGL inhibition)

IC50	Structure (SMILES)
> 10 µM	Cc1cc(C2CC3(C2)CN(Cc2cc(O)ccc2F)C3)n(-c2ccccc2C)n1 [Compound 150, 4-fluoro-3-((6-(3-methyl-1-(o-tolyl)-1H-pyrazol-5-yl)-2-azaspiro[3.3]heptan-2-yl)methyl) phenol]

Target: T1, human MAGL
Test: MAGL reversible inhibition assay (washout)
Format: biochemical
Details: pre-washout compound concentration: 1 μM
Experimental: The reversible mechanism of MAGL inhibition of a test compound of Formula (I) can be determined. Flag-tagged MAGL enzyme will be immobilized on anti-Flag beads. Immobilized enzyme will be incubated+/−inhibitor at a dose that produces complete inhibition. Colorimetric substrate (4-NPA) will be added and the reaction monitored on a plate reader for 30 minutes to verify complete inhibition. Immobilized enzyme will then be washed thoroughly to remove the inhibitor, and fresh substrate will be added. The reaction will be monitored for an additional 30 minutes; returning enzymatic activity will indicate reversibility of inhibition.
MAGL enzyme was incubated for 30 minutes in the presence of 40× the IC50 concentration of inhibitor. Enzyme+inhibitor mix was then diluted 40-fold so that the final concentration of the inhibitor equaled the IC50 concentration. Substrate was added and the reaction was monitored for 30 minutes.
Target sequence in this assay (Q99685 whole entry): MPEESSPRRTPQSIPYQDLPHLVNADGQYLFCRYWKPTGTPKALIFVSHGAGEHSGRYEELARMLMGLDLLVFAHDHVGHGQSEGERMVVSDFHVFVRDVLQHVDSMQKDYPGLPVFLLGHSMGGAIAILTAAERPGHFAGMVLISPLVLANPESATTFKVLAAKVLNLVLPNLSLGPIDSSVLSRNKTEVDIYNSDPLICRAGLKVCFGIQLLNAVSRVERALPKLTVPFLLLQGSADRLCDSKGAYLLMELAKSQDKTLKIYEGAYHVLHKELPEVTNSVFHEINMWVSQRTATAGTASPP

A: degree to which MAGL enzymatic activity returned following washout	Structure (SMILES)
155	Cc1cnn(C2CC3(C2)CN(C(=O)c2cc(O)ccc2F)C3)c1-c1cc(F)ccc1Cl [Compound 519, {6-[5-(2-chloro-5-fluorophenyl)-4-methyl-1-pyrazolyl]-2-aza-2-spiro[3.3]heptyl}(2-fluoro-5-hydroxyphenyl) methanone]
100	Cc1cn(C2CC3(C2)CN(C(=O)c2cc(O)ccc2F)C3)nc1-c1cc(F)ccc1Cl [Compound 520, {6-[3-(2-chloro-5-fluorophenyl)-4-methyl-1-pyrazolyl]-2-aza-2-spiro[3.3]heptyl}(2-fluoro-5-hydroxyphenyl) methanone]

Target: T1, human MAGL
Test: MAGL inhibition potency assay with 4NPA substrate (methods of Table C)
Format: biochemical
Details: Method 2: Cayman Chemical MAGL enzyme, 10 nM; read-out: MAGL Potency (Detection Method)
Target sequence in this assay (Q99685 2-303): as the sequence (Q99685 2-303) above

IC50	Structure (SMILES)
< 0.05 µM	Cc1cc(C2CC3(C2)CN(C(=O)c2cc(O)c(F)cc2F)C3)n(-c2ccccc2C)n1 [Compound 126, (2,4-difluoro-5-hydroxyphenyl) (6-(3-methyl-1-(o-tolyl)-1H-pyrazol-5-yl)-2-azaspiro[3.3]heptan-2-yl) methanone]
< 0.05 µM	Cc1cc(C2CC3(C2)CN(C(=O)c2cc(O)ccc2C#N)C3)n(-c2ccccc2C)n1 [Compound 128, 4-hydroxy-2-({6-[3-methyl-1-(o-tolyl)-5-pyrazolyl]-2-aza-2-spiro[3.3]heptyl}carbonyl)benzonitrile]
< 0.05 µM	Cc1cc(C2CC3(C2)CN(C(=O)c2ccc(F)cc2OCC(F)(F)F)C3)n(-c2ccccc2C)n1 [Compound 178, [4-fluoro-2-(2,2,2-trifluoroethoxy)phenyl]{6-[3-methyl-1-(o-tolyl)-5-pyrazolyl]-2-aza-2-spiro[3.3]heptyl}methanone]

Same assay, conditions: Method 2: Cayman Chemical MAGL enzyme, 10 nM; read-out: Potency (MAGL inhibition)

IC50	Structure (SMILES)
> 10 µM	Cc1cc(C2CC3(C2)CN(C(=N)c2cc(O)ccc2F)C3)n(-c2ccccc2C)n1 [Compound 144]
> 10 µM	COc1cc(F)ccc1C(=O)N1CC2(CC(c3cc(C)nn3-c3ccccc3C)C2)C1 [Compound 149]
> 10 µM	Cc1cc(C2CC3(C2)CN(C2CCOc4ccccc42)C3)n(-c2ccccc2C)n1 (centres unmarked) [Compound 152]
> 10 µM	Cc1cc(C2CC3(C2)CN([C@@H]2CCOc4ccccc42)C3)n(-c2ccccc2C)n1 [Compound 153]
> 10 µM	Cc1cc(C2CC3(C2)CN([C@H]2COc4ccccc42)C3)n(-c2ccccc2C)n1 [Compound 154]
> 10 µM	Cc1cc(C2CC3(C2)CN([C@@H]2COc4ccccc42)C3)n(-c2ccccc2C)n1 [Compound 155]
> 10 µM	Cc1cc(C2CC3(C2)CN(C(=O)c2ccoc2)C3)n(-c2ccccc2C)n1 [Compound 179]
> 10 µM	Cc1cc(C2CC3(C2)CN(C(=O)c2cccn2C)C3)n(-c2ccccc2C)n1 [Compound 181]
> 10 µM	Cc1cc(C2CC3(C2)CN(C(=O)c2ccn(C)c2)C3)n(-c2ccccc2C)n1 [Compound 182]
> 10 µM	Cc1cc(C2CC3(C2)CN(C(=O)c2ccc[nH]2)C3)n(-c2ccccc2C)n1 [Compound 183]
> 10 µM	Cc1cc(C2CC3(C2)CN(C(=O)c2cc[nH]c2)C3)n(-c2ccccc2C)n1 [Compound 184]
> 10 µM	CCOc1cc(F)ccc1C(=O)N1CC2(CC(C(=O)Nc3ccccc3C)C2)C1 [Compound 188]

Same assay, conditions: Method 3: Reaction Biology MAGL enzyme, 10 nM; read-out: MAGL Potency (Detection Method)

IC50	Structure (SMILES)
< 0.05 µM	Cc1cc(C2CC3(C2)CN(C(=O)c2cc(O)c(F)cc2F)C3)n(-c2ccccc2C)n1 [Compound 126, (2,4-difluoro-5-hydroxyphenyl) (6-(3-methyl-1-(o-tolyl)-1H-pyrazol-5-yl)-2-azaspiro[3.3]heptan-2-yl) methanone]
< 0.05 µM	Cc1cc(C2CC3(C2)CN(C(=O)c2ccc(F)cc2OCC(F)(F)F)C3)n(-c2ccccc2C)n1 [Compound 178, [4-fluoro-2-(2,2,2-trifluoroethoxy)phenyl]{6-[3-methyl-1-(o-tolyl)-5-pyrazolyl]-2-aza-2-spiro[3.3]heptyl}methanone]

Same assay, conditions: Method 4: Cayman Chemical MAGL enzyme, 15 nM; read-out: Potency (MAGL inhibition)

IC50	Structure (SMILES)
> 10 µM	CCOc1cc(F)ccc1C(=O)N1CC2(CC(C(=O)N(C)c3cccnc3C)C2)C1 [Compound 198]

Same assay, conditions: Method 5: Cayman Chemical MAGL enzyme, 25 nM; read-out: MAGL Potency (Detection Method)

IC50	Structure (SMILES)
< 0.05 µM	Cc1cc(C2CC3(C2)CN(C(=O)c2ccc(F)cc2OCC(F)(F)F)C3)n(-c2ccccc2C)n1 [Compound 178, [4-fluoro-2-(2,2,2-trifluoroethoxy)phenyl]{6-[3-methyl-1-(o-tolyl)-5-pyrazolyl]-2-aza-2-spiro[3.3]heptyl}methanone]

Same assay, conditions: Method 11: Reaction Biology MAGL enzyme, Conc 20 (text: 25 nM); read-out: Potency (MAGL inhibition)

IC50	Structure (SMILES)
> 10 µM	Cc1cc(-c2cc(F)ccc2C)n(C2CC3(C2)CN(C(=O)c2ccc(F)cc2OC(F)(F)F)C3)n1 [Compound 427]

Same assay, conditions: Method 12: Reaction Biology MAGL enzyme, 15 nM; read-out: Potency (MAGL inhibition)

IC50	Structure (SMILES)
> 10 µM	Cc1cnn(C2CC3(C2)CN(C(=O)c2cc(O)ccc2F)C3)c1-c1ccccc1F [Compound 494]
> 10 µM	Cc1cn(C2CC3(C2)CN(C(=O)c2cc(O)ccc2C(F)(F)F)C3)nc1-c1ccccc1F [Compound 495]
> 10 µM	O=C(c1c(F)cccc1OC1CC1)N1CC2(CC(n3ncc(C(F)(F)F)c3-c3ccccc3F)C2)C1 [Compound 521]
